Assay results from patent US10882826B2, “Quinolinone or quinazolinone comprising antibiofilm compositions, compounds and methods and uses relating thereto” (University College Cork—National University of Ireland, priority 2015, dated 2021).

Columns and labels:
[1] = test system: A. fumigatus Af293 biofilm; experiment: A. fumigatus biofilm assay (crystal violet); format: cell-based, Aspergillus fumigatus; conditions: for Relative absorbance at 595 nm compared to methanol control, Mean: A. fumigatus Af293 biofilm, 100 μM, 24 hrs, crystal violet; for effectiveness against fungal biofilms formed by Aspergillus fumigatus (in words): summary statement
Method: A. fumigatus Af293 was routinely grown on Sabouraud dextrose agar (SDA) in 100 ml cell culture flasks at 37° C. for 3-4 days until a lawn of fungal growth was observed.
(§1) A. fumigatus Af293 was grown on SDA in 100 ml cell culture flasks at 37° C. for 3-4 days. Conidia were harvested by flooding the surface of the agar plates with 5 ml PBS (Oxoid) containing 0.025% (v/v) Tween 20 and gently moving the liquid over the surface of the fungal lawn. The conidial suspension was transferred into a 25 ml sterile container and conidia were counted using a Neubauer haemocytometer and light microscope. Conidia were adjusted to the required concentration in RPMI 1640 (Sigma) buffered to pH 7.0 with 0.165 M MOPS immediately prior to biofilm formation analysis.
(§2) To assess biofilm formation, counted A. fumigatus spores (1×10^5) in MOPS buffered RPMI 1640 were inoculated into 24- and 96-well plates and grown overnight in the presence of 100 μM HHQ, PQS and the test compounds. After 24 hrs, the media was removed and the biofilm washed twice with distilled water after which 0.1% crystal violet (CV) was added to each well and allowed to stand for 1 hr at room temperature. The crystal violet was removed and all wells washed in a water bath by inversion. Ethanol was added to each well to solubilise biofilms after which samples were read on a spectrophotometer at Abs595 nm.

Pseudomonus aeruginosa = experiment: Virulence of Pseudomonas aeruginosa (summary statement); format: cell-based; conditions: unlike HHQ and PQS
Method: The virulence of compounds B1, B2, C2, C3, C4, C5, C6, C8 and C11 towards P. aeruginosa was assessed using the following method:
P. aeruginosa strains were cultured as described above for 24 hr, with the addition of test compounds (10 μM). Cultures were centrifuged at 4000 rpm for 10 minutes and the cell free supernatant (5 ml) removed. Chloroform (3 ml) was added, and mixed by vortex. After centrifugation at 4000 rpm for 5 mins, the lower aqueous phase was transferred to 0.2 M HCl (2 ml). Samples were mixed by vortex and centrifuged at 4000 rpm for 5 mins to separate the phases. An aliquot of the top phase (1 ml) was removed and spectrophotmetrically analysed at OD570 nm. Phenazine production was calculated using the following formula: OD570 nm×2×17.072 and the units expressed in μg/ml. […]

mammalian cells = experiment: Cytotoxicity towards mammalian cells (summary statement); format: cell-based
Method: Lactate dehydrogenase (LDH) release from IB3 lung epithelial cells was assayed as a measure of cytotoxicity using an LDH colorimetric kit (Roche) according to manufacturers' instructions. Briefly, IB3-1 cells were seeded onto 96 well plates and treated with methanol (control) and test compounds (100 μM). Following 16 hr incubation at 37° C. and 5% CO2, supernatants were removed and added to catalyst reaction mixture in a fresh plate and further incubated at 37° C. and 5% CO2 for 30 mins to allow for colour development. After this period, the plate was analysed on an ELISA plate reader at OD490 nm. Cytotoxicity was expressed as a percentage of cells treated with 0.1% (v/v) Triton (100% cytotoxicity). The results are detailed in table 3:
The above experiments were repeated, testing some compounds against further cell lines (A549, DU145 and HeLa).

[2] = test system: pqsA-lacZ promoter fusion; experiment: Promoter fusion based expression analysis (pqsA-lacZ, Miller units); format: cell-based, P. aeruginosa; conditions: for Miller Units, Mean: PAO1 pqsA-pqsA-lacZ strain, 100 μM, overnight, methanol control 12287; for Normalised Miller Units, Mean: normalized to the methanol control (=1), n>=2
Method: (§3) P. aeruginosa strains, PAO1 and pqsA mutant, containing the chromosomally inserted pqsA-lacZ promoter fusion on plasmid pUC18-mini-Tn7, were sub-cultured from glycerol stocks onto LB agar plates, supplemented with Carbenicillin (200 μg/ml) and X-gal (40 μg/ml), and incubated at 37° C. overnight. Single colonies were inoculated into LB broth (20 ml), supplemented with Carbenicillin (200 μg/ml), and incubated at 37° C., shaking at 180 rpm overnight. For subsequent experiments, the OD600 nm was recorded and a starting OD600 nm of 0.02 was inoculated into fresh LB broth, supplemented with Carbenicillin (200 μg/ml) and incubated at 37° C., shaking at 180 rpm.
Promoter fusion analyses were performed in a 96-well format. Briefly, overnight cultures of wild-type PAO1 pqsA-lacZ (pLP0996) and mutant strain PAO1 pqsA^− pqsA-LacZ were diluted to OD600 nm=0.02 in LB. Test compounds at 100 μM final concentration were added, mixed, aliquoted into 96 well plates and incubated overnight at 37° C. with shaking. The next day, OD600 nm values were recorded in a plate reader. Aliquots of cells (0.02 ml) were permeabilised [100 mM dibasic sodium phosphate (Na2HPO4), 20 mM KCl, 2 mM MgSO4, 0.8 mg/mL CTAB (hexadecyltrimethylammonium bromide), 0.4 mg/mL sodium deoxycholate, 5.4 μL/mL beta-mercaptoethanol] and added to substrate solution [60 mM Na2HPO4, 40 mM NaH2PO4, 1 mg/mL o-nitrophenyl-β-D-Galactoside (ONPG), 2.7 μL/mL β-mercaptoethanol]. The kinetics of colour development was monitored and the reactions were stopped using 1M NaCO3. OD420 nm were recorded as above. Miller units were calculated using the following equation; 1000×[OD420 nm/(OD600 nm)×0.02 ml×reaction time (mins)].
(§4) The phenazine production levels and Miller units in the PAO1 pqsA-pqsA-lacZ strain are detailed in table 5.
(§5) The virulence of compounds B2, C13 and C15 towards P. aeruginosa was assessed using an analogous method.

[3] = test system: C. albicans strain SC5314 biofilm; experiment: XTT metabolic assay of C. albicans biofilm; format: cell-based, Candida albicans; conditions: C. albicans biofilm, test compound 100 μM, 24 hr; MeOH control 0.647, untreated 0.851
Method: C. albicans strain SC5314 was sub-cultured from 15% (v/v) glycerol stocks at −80° C. onto Yeast Peptone Dextrose (YPD) medium [1% (w/v) yeast extract, 2% (w/v) peptone and 2% (w/v) dextrose] and incubated at 30° C. overnight.
The test compounds in desiccated form were re-suspended in Methanol to create a 10 mM stock. […]
The ability of some of the compounds detailed in example 1 to disrupt Candida albicans was tested using Confocal Scanning Laser Microscopy and an XTT Metabolic Assay. The XTT assay is a commonly used quantitative method assessing Candida biofilm mass and growth often in response to novel drug therapies.
C. albicans biofilm formation was carried out in 96 well plates by a method of the prior art. Briefly, C. albicans was inoculated into Yeast Nitrogen Base [10% (w/v)] and glucose/maltose [10% (w/v)] and incubated overnight at 30° C. Seeding densities for all subsequent experiments (N=3) were OD600=0.05. Cells were grown in Yeast Nitrogen Base supplemented with 1 M Phosphate buffer and acetyl-D-glucosamine (YNB-NP) along with appropriate volumes of test compound to provide the desired concentration. Cells were cultured in 96 well plates for 1 hr at 37° C. to facilitate yeast attachment. After this incubation, the supernatants were aspirated, the wells washed twice with YNB-NP media, and fresh media with the same concentration of test compound added to the appropriate wells. The plate was incubated for 24 hr at 37° C. The next day, the cultures were aspirated and the wells washed once with YNB-NP media.
C. albicans biofilm quantification was carried out in 96 well plates using a semi-quantitative Tetrazolium salt, 2,3-bis-(2-methoxy-4-nitro-5-sulfophenyl)-2H tetrazolium-5-carboxanilide inner salt (XTT) reduction assay (Hawser, Tunney et al, Antimicrob Agents Chemother. 2004 May; 48(5):1879-81). XTT (0.01 g) was dissolved in sterile water (20 ml) and filter sterilized. 10 μl of Menadione dissolved in Acetone was added to the XTT solution, just before use. The XTT-Menadione Solution (100 μl) was added to each well. The plate was incubated in the dark at 37° C. for up to 2 hr to allow for colour development. The OD492 nm was recorded for each well. Experiments were repeated at least three times, with at least eight technical replicates.
Experiments were first carried out using the test compound at concentration of 100 μM.

[4] = test system: P. aeruginosa PAO1 pqsA-pqsA-lacZ strain; experiment: Phenazine extraction (phenazine production); format: cell-based; conditions: for Phenazine, Mean: PAO1 pqsA-pqsA-lacZ strain, test compounds 10 μM, 24 hr, methanol control 0.080; for Normalised Phenazine, Mean: normalized to the methanol control (=1), n>=2
Method: as §3
P. aeruginosa strains were cultured as described above for 24 hr, with the addition of test compounds (10 μM). Cultures were centrifuged at 4000 rpm for 10 minutes and the cell free supernatant (5 ml) removed. Chloroform (3 ml) was added, and mixed by vortex. After centrifugation at 4000 rpm for 5 mins, the lower aqueous phase was transferred to 0.2 M HCl (2 ml). Samples were mixed by vortex and centrifuged at 4000 rpm for 5 mins to separate the phases. An aliquot of the top phase (1 ml) was removed and spectrophotmetrically analysed at OD570 nm. Phenazine production was calculated using the following formula: OD570 nm×2×17.072 and the units expressed in μg/ml.
as §4, §5

[5] = test system: A. fumigatus CFBRC3 biofilm; experiment: A. fumigatus biofilm assay, clinical source CFBRC3; format: cell-based, Aspergillus fumigatus; conditions: biofilm from clinical source CFBRC3
Method: as §1, §2
(§6) The above experiments were carried out using biofilms grown from laboratory sources of A. fumigatus. The experiments were repeated to test some compounds against biofilms grown from three different clinical sources of A. fumigatus (CFBRC1, CFBRC2 and CFBRC3. The results are shown in table 8: […]

[6] = test system: A. fumigatus CFBRC2 biofilm; experiment: A. fumigatus biofilm assay, clinical source CFBRC2; format: cell-based, Aspergillus fumigatus; conditions: biofilm from clinical source CFBRC2
Method: as §1, §2, §6

[7] = test system: A. fumigatus CFBRC1 biofilm; experiment: A. fumigatus biofilm assay, clinical source CFBRC1; format: cell-based, Aspergillus fumigatus; conditions: biofilm from clinical source CFBRC1
Method: as §1, §2, §6

Row | SMILES | Relative absorbance at 595 nm compared to methanol control, Mean [1] | effectiveness against fungal biofilms formed by Aspergillus fumigatus (in words) [1] | effect on virulence of Pseudomonus aeruginosa (in words) (Pseudomonus aeruginosa) | cytotoxicity towards mammalian cells (in words) (mammalian cells) | Miller Units, Mean [2] [Miller Units] | Absorbance at 492 nm, Mean (XTT) [3] | Phenazine, Mean [4] [µg/mL] | Relative absorbance compared to MeOH (=1), Mean [5] | Relative absorbance compared to MeOH (=1), Mean [6] | Relative absorbance compared to MeOH (=1), Mean [7] | Normalised Miller Units, Mean [2] | Normalised Phenazine, Mean [4]
1 | CCCCCCCc1cc(=O)c2cc(CCCCCC)ccc2[nH]1 [Compound C7] | 0.27 | effective | do not increase the virulence | reduced cytotoxicity | – | – | – | – | – | – | – | –
2 | CCCCCCCCCc1cc(=O)c2cc(OC)ccc2[nH]1 [Compound C8] | 0.47 | effective | do not increase the virulence | reduced cytotoxicity | 11753 | 0.457 | 0.205 | – | – | – | – | –
3 | CCCCCCCc1cc(=O)c2ccc(OC)cc2[nH]1 [Compound C9] | 0.18 | effective | do not increase the virulence | reduced cytotoxicity | – | – | – | 0.439 | 0.484 | 0.593 | – | –
4 | CCCCCCCc1cc(=O)c2cc(OC)ccc2[nH]1 [Compound C11] | – | – | do not increase the virulence | reduced cytotoxicity | 12254 | 0.242 | 0.432 | – | – | – | – | –
5 | CCCCCCCc1cc(=O)c2cc(C(=O)OCC)ccc2[nH]1 [Compound C13] | 0.38 | effective | do not increase the virulence | reduced cytotoxicity | – | – | – | 0.609 | 0.620 | 0.507 | 0.3715 | 0.747 ratio to methanol control
6 | CCCCCCCc1cc(=O)c2cc(F)ccc2[nH]1 [Compound C14] | 0.42 | – | – | reduced cytotoxicity | – | – | – | 0.501 | 0.823 | 0.550 | – | –
7 | CCCCCCCc1cc(=O)c2c(C)cc(C)cc2[nH]1 [Compound C15] | 0.25 | effective | do not increase the virulence | reduced cytotoxicity | – | – | – | 0.413 | 0.443 | 0.518 | 0.4671 | 0.4984 ratio to methanol control
